Data taken from ChEMBL document CHEMBL6083284, “Identification of TAK-756, A Potent TAK1 Inhibitor for the Treatment of Osteoarthritis through Intra-Articular Administration” (J Med Chem, 2024).
In brackets after ≈: the same amount, converted by molar mass.

What was measured:
[1] = Thermodynamic solubility in simulated synovial fluid containing PBS/BSA incubated for 20 hrs by HPLC-HRMS analysis; format: physicochemical; conditions: read-out: Therm_solubility
[2] = Inhibition of MMP3 production in human C20/A4 cells by Nano-Glo HiBit assay; conditions: C20/A4, read-out: pEC50 (converted)
[3] = Inhibition of IL-6 production in human SW982 cells by Nano-Glo HiBit assay; conditions: SW982, read-out: pEC50 (converted)
[4] = Partition coefficient, logP of compound in octanol/water; format: physicochemical
[5] = Terminal half life in plasma of Sprague-Dawley rat at 250 ug, IART measured for 168 hrs by LC-MS/MS analysis; format: ADME, cell-free; conditions: dose 250 µg, read-out: beta t1/2 (converted)
[6] = Drug concentration in synovial fluid of Sprague-Dawley rat at 250 ug, IART measured for 168 hrs by LC-MS/MS analysis; format: ADME, tissue-based; conditions: for concentration at 168 h: Sprague-Dawley, synovial fluid, 250 ug, read-out: Ct
[7] = Free drug concentration in synovial fluid of Sprague-Dawley rat at 250 ug, IART measured for 168 hrs by LC-MS/MS analysis; format: ADME, tissue-based; conditions: in vivo, other, dose 250 µg
[8] = Solubility in simulated synovial fluid; format: physicochemical
[9] = Lipophilicity, logD of compound; format: physicochemical; conditions: octanol/water
[10] = Drug uptake in tibia of Sprague-Dawley rat assessed as accumulation at cartilage tissue of tibial plateau at 50 ug, IART measured for 168 hrs by LC-MS/MS analysis; format: ADME, tissue-based; conditions: in vivo, other, dose 50 µg
[11] = Drug concentration in plasma of Sprague-Dawley rat at 50 ug, IART measured for 168 hrs by LC-MS/MS analysis; format: ADME, cell-free; conditions: dose 50 µg
[12] = Protein binding in bovine synovial fluid assessed as unbound fraction at 5 uM incubated for 4 hrs by rapid equilibrium dialysis; format: ADME, tissue-based, Bos taurus; conditions: cattle
[13] = Drug uptake in synovial fluid of Sprague-Dawley rat at 50 ug, IART measured after 72 hrs by LC-MS/MS analysis; format: ADME, tissue-based; conditions: in vivo, other, dose 50 µg
[14] = Toxicity in Sprague-Dawley rat assessed as drug tolerance at 50 ug, IART measured for 168 hrs by LC-MS/MS analysis; conditions: in vivo, other, dose 50 µg
[15] = Drug concentration in plasma of Sprague-Dawley rat at 50 ug, IART measured after 24 hrs by LC-MS/MS analysis; format: ADME, cell-free; conditions: dose 50 µg
[16] = Drug uptake in tibia of Sprague-Dawley rat assessed as accumulation at synovial membrane of tibial plateau at 50 ug, IART measured for 168 hrs by LC-MS/MS analysis; format: ADME, tissue-based; conditions: in vivo, other, dose 50 µg
[17] = Drug concentration in Lewis/Or1Rj naive rat model of joint inflammation at >60 ug, IART pretreated with compound 72 hrs prior to LPS/MSU treatment measured after 4 hrs; format: ADME; conditions: in vivo, dose > 60 µg, read-out: Ct
[18] = tested on: Mitogen-activated protein kinase kinase kinase 7 (TAK1, Rattus norvegicus); experiment: In vivo inhibition of TAK1 in Lewis/Or1Rj naive rat model of joint inflammation assessed as reduction in CXCL1 level at 15 ug, IART pretreated with compound 72 hrs prior to LPS/MSU treatment measured after 4 hrs relative to control; conditions: dose 15.0 µg, time 76.0 hrs
[19] = Unbound drug concentration in Lewis/Or1Rj naive rat model of joint inflammation at >60 ug, IART pretreated with compound 72 hrs prior to LPS/MSU treatment measured after 4 hrs; format: ADME; conditions: in vivo, other, 76 h, dose > 60 µg
[20] = target: Interleukin-1 receptor-associated kinase 1 (Homo sapiens) (UniProt P51617); experiment: Inhibition of IRAK1 (unknown origin) at 1 uM relative to control
Sequence of Interleukin-1 receptor-associated kinase 1 (Homo sapiens) (P51617 whole entry, looked up): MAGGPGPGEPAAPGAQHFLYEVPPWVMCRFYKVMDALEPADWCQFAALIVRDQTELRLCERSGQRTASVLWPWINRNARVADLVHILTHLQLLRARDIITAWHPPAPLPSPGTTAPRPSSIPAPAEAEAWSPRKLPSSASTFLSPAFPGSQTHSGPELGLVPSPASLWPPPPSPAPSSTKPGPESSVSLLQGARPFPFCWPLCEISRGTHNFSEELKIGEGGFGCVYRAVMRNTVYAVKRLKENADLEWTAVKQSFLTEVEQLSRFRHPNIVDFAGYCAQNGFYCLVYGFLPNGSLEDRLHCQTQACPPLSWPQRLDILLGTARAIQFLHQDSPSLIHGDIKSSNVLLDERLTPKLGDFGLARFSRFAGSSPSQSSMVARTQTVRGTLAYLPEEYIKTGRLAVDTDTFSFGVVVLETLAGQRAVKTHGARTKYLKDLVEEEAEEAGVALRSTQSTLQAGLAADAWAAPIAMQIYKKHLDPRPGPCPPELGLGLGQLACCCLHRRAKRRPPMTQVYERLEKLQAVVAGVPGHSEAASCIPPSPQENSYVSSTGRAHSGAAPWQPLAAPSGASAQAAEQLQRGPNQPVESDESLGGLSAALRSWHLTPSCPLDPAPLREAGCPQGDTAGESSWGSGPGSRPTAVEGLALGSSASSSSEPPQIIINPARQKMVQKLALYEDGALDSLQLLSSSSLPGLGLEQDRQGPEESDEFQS

[21] = target: Mitogen-activated protein kinase kinase kinase kinase 4 (Homo sapiens) (UniProt O95819); experiment: Inhibition of MAP4K4 (unknown origin) at 1 uM relative to control
[22] = target: Receptor-type tyrosine-protein kinase FLT3 (Homo sapiens) (UniProt P36888); experiment: Inhibition of FLT3 (unknown origin) at 1 uM relative to control
Sequence of Receptor-type tyrosine-protein kinase FLT3 (Homo sapiens) (P36888 whole entry): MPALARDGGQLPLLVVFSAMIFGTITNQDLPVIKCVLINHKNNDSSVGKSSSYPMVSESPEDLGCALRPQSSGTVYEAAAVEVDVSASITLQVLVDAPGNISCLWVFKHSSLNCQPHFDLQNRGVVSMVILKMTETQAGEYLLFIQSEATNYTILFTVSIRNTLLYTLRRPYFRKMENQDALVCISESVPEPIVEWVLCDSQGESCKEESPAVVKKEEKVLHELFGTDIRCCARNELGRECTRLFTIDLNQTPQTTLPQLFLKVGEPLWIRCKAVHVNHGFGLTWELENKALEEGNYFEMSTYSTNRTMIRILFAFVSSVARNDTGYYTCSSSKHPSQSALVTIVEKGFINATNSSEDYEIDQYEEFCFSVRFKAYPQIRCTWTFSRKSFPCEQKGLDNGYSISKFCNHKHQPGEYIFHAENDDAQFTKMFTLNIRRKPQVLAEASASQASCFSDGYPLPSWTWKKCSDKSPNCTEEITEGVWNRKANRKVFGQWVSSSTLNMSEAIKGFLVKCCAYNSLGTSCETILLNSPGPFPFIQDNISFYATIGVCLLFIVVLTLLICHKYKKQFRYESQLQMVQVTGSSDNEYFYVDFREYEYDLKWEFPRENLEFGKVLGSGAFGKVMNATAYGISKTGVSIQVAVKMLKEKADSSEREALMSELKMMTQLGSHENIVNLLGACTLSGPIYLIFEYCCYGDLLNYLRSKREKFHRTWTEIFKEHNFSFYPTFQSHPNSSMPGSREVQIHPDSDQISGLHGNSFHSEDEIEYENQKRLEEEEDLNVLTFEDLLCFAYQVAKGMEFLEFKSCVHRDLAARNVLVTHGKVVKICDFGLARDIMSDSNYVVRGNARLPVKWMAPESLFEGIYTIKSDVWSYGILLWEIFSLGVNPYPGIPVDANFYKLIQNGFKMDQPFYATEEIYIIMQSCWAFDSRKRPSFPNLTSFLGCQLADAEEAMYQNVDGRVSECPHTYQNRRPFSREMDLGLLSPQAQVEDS

Rattus norvegicus [23] = experiment: Downregulation of Cxcl1 mRNA level in meniscus of Lewis/Or1Rj naive rat model of joint inflammation administered intra-articularly pretreated with compound 72 hrs prior to LPS/MSU treatment measured after 4 hrs by qPCR analysis; format: functional, organism-based; conditions: dose <= 240.0 µg, route iart, time 76.0 hrs
Rattus norvegicus [24] = species: Rattus norvegicus; experiment: Effect on Mmp3 mRNA level in meniscus of Lewis/Or1Rj naive rat model of joint inflammation >=30 ug, IART pretreated with compound 72 hrs prior to LPS/MSU treatment measured after 4 hrs by qPCR analysis; format: functional, organism-based; conditions: dose >= 30.0 µg, time 76.0 hrs
[25] = target: Dual specificity protein kinase CLK4 (Homo sapiens) (UniProt Q9HAZ1); experiment: Inhibition of CLK4 (unknown origin) at 1 uM relative to control
Sequence of Dual specificity protein kinase CLK4 (Homo sapiens) (Q9HAZ1 whole entry, looked up): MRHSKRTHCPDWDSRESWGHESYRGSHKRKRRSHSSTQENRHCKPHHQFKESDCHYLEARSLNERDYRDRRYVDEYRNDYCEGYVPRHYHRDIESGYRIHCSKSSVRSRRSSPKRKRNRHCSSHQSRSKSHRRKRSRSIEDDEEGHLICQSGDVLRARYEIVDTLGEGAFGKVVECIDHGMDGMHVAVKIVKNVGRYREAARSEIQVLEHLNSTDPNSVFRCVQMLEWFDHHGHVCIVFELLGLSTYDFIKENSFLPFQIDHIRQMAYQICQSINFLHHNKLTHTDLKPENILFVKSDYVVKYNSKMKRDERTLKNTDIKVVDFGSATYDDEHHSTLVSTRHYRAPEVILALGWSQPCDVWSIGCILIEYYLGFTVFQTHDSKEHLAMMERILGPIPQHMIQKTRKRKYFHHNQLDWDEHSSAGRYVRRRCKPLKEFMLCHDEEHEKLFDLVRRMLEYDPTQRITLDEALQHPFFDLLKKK

[26] = target: TRAF2 and NCK-interacting protein kinase (Homo sapiens) (UniProt Q9UKE5); experiment: Inhibition of TNIK (unknown origin) at 1 uM relative to control
Sequence of TRAF2 and NCK-interacting protein kinase (Homo sapiens) (Q9UKE5 whole entry, looked up): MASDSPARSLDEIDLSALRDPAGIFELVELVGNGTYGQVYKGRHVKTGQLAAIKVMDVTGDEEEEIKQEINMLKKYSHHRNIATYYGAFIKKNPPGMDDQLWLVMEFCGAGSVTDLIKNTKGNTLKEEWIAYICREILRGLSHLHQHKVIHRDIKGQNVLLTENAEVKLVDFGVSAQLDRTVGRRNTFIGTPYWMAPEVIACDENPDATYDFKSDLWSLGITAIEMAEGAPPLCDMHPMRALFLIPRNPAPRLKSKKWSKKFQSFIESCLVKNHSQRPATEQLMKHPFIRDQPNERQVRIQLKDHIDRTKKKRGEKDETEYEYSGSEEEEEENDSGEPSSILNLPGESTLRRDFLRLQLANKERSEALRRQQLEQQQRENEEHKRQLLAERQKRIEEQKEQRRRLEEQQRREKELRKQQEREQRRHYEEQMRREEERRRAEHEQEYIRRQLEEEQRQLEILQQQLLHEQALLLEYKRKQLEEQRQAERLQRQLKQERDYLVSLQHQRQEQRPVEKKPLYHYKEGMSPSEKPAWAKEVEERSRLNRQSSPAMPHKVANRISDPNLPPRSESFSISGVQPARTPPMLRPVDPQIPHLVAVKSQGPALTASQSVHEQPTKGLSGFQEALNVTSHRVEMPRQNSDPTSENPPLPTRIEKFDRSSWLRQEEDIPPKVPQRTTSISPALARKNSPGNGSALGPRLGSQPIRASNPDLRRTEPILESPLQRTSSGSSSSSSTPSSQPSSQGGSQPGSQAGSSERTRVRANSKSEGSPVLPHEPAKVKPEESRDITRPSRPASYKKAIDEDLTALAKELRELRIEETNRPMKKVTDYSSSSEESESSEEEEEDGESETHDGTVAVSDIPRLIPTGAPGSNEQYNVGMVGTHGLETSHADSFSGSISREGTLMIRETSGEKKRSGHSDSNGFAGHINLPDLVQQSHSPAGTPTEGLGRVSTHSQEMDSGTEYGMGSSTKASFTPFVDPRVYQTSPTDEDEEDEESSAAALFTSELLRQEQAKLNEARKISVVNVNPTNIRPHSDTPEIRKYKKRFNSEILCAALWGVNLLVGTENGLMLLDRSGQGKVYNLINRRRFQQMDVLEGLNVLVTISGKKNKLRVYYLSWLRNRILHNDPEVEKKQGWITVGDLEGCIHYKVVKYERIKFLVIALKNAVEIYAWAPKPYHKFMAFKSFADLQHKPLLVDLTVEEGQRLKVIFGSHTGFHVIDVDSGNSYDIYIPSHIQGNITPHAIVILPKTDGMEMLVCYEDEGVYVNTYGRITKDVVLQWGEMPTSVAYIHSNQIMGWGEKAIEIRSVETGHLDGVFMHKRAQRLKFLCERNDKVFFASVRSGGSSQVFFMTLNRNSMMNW

[27] = Drug uptake in synovial fluid of Lewis/Or1Rj naive rat model of joint inflammation administered intra-articularly pretreated with compound 72 hrs prior to LPS/MSU treatment measured after 4 hrs; format: ADME; conditions: in vivo, other, 76 h, route iart, dose < 240 µg
[28] = tested on: Mitogen-activated protein kinase kinase kinase 7 (TAK1, Rattus norvegicus); experiment: In vivo inhibition of TAK1 in Lewis/Or1Rj naive rat model of joint inflammation assessed as reduction in CXCL1 level administered intra-articularly pretreated with compound 72 hrs prior to LPS/MSU treatment measured after 4 hrs; conditions: dose <= 240.0 µg, route iart, time 76.0 hrs
[29] = Drug concentration in tibia of Sprague-Dawley rat assessed as accumulation in synovial membrane of tibial plateau at 250 ug, IART measured for 168 hrs by LC-MS/MS analysis; format: ADME; conditions: dose 250 µg, read-out: Ct
[30] = Drug concentration in tibia of Sprague-Dawley rat assessed as accumulation in tibial plateau at 250 ug, IART measured for 168 hrs by LC-MS/MS analysis; format: ADME, tissue-based; conditions: dose 250 µg, read-out: Drug uptake
Rattus norvegicus [31] = experiment: Downregulation of Il6 mRNA level in meniscus of Lewis/Or1Rj naive rat model of joint inflammation administered intra-articularly pretreated with compound 72 hrs prior to LPS/MSU treatment measured after 4 hrs by qPCR analysis; format: functional, organism-based; conditions: dose <= 240.0 µg, route iart, time 76.0 hrs
[32] = target: Misshapen-like kinase 1 (Homo sapiens) (UniProt Q8N4C8); experiment: Inhibition of MINK1 (unknown origin) at 1 uM relative to control
Sequence of Misshapen-like kinase 1 (Homo sapiens) (Q8N4C8 whole entry, looked up): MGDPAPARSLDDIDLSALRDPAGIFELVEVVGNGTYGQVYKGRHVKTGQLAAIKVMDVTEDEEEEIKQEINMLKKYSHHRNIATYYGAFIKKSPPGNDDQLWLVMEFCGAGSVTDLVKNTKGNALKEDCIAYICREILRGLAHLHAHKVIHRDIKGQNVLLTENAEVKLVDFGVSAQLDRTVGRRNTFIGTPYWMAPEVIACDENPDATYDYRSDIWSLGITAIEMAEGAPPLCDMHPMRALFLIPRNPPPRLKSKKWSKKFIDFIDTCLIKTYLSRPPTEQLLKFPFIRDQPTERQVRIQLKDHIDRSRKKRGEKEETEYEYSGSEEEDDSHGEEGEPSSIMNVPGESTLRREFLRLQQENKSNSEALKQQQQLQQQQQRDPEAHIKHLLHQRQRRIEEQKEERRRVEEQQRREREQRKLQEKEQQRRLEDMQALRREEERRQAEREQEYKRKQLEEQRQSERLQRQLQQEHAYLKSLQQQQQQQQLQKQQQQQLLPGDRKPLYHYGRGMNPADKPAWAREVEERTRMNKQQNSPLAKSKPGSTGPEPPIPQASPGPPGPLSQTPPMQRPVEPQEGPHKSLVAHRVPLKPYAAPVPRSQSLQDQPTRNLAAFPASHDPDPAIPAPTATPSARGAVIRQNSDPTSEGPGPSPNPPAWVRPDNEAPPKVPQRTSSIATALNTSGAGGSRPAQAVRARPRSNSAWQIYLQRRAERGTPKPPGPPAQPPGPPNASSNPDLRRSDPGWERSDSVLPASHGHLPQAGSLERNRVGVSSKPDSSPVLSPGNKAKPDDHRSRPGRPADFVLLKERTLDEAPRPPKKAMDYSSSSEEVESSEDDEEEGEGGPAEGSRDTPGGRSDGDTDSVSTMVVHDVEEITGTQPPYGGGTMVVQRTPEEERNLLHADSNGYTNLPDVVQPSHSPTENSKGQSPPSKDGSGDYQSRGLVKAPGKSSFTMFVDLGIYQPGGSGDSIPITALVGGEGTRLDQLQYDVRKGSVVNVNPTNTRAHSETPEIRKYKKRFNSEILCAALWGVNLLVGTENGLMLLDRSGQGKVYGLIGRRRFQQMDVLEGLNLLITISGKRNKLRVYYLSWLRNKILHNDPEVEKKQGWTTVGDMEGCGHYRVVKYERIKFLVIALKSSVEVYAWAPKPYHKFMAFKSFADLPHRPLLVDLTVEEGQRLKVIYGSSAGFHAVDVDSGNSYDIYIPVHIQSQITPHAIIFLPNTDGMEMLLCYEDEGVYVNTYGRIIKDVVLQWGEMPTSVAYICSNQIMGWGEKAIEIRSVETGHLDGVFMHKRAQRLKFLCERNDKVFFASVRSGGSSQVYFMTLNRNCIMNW

[33] = target: T1, Interleukin-1 receptor-associated kinase 4 (Homo sapiens) (UniProt Q9NWZ3); experiment: Inhibition of IRAK4 (unknown origin) at 1 uM relative to control
T1 sequence (whole entry): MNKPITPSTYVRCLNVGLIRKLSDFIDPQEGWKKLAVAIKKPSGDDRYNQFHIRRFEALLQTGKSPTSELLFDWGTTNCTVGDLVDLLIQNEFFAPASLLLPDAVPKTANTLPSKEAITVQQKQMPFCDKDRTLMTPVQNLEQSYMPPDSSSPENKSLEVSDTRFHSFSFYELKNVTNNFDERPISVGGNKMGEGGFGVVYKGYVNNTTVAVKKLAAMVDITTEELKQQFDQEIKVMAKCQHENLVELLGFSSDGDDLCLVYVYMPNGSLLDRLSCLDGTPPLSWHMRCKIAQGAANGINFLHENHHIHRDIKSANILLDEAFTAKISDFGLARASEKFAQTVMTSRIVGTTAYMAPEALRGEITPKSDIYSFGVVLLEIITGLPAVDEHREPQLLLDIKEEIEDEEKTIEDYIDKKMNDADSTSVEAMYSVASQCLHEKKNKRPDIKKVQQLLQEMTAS

Compound | solubility thermodynamic at 20 h [1] [µM] | EC50 [2] [nM] | EC50 [3] [nM] | logP [4] | half-life [5] [h] | Drug uptake(free) [7] | fraction unbound at 4 h, 5 µM [12] | concentration at 168 h [6] [nM] | other results
CN(C)C(=O)c1ccc(-c2cc(-c3cccc(C(N)=O)c3)no2)c(O[C@H]2CC[C@@H](O)CC2)c1 | 10 (≈ 4.5 µg/mL) | 158 | 126 | 2.8 |  |  |  |  | 
CC(=O)Nc1ccc(-c2cc(-c3cccc(C(N)=O)n3)no2)c(O[C@H]2CC[C@@H](O)CC2)n1 | 0.2 (≈ 0.0875 µg/mL) | 501 | 1000 | 4 | 11 | Below_limit_of_detection |  |  | Ct ([6]; in vivo, other, 168 h, dose 250 µg): Below_limit_of_detection
CN(C)C(=O)c1ccc(-c2cc(-c3cccc(C(N)=O)n3)no2)c(O[C@H]2CC[C@@H](O)CC2)n1 | 2.9 (≈ 1.31 µg/mL) | 126 | 79.4 | 3 |  |  |  |  | 
CC(C)CC(=O)Nc1cncc(-c2ccc3[nH]nc(-c4nc5c(-c6cccc(F)c6)cncc5[nH]4)c3c2)c1 [LORECIVIVINT] |  |  |  |  |  |  |  |  | solubility [8]: 0.8 µM (≈ 0.404 µg/mL); logD [9]: > 4.7
NC(=O)c1cccc(-c2cc(-c3cccnc3O[C@H]3CC[C@@H](O)CC3)on2)n1 | 4.5 (≈ 1.71 µg/mL) | 158 | 251 | 3.8 | 7 | < 1 nM | 0.056 | 14 | Drug uptake [10]: Active; concentration at 168 h [11]: < 100 nM; Drug uptake [13]: Active; Activity [14]: Non-toxic; concentration at 24 h [15]: 1 nM; Drug uptake [16]: Active
COc1ccc(-c2cc(-c3cccc(C(N)=O)n3)no2)c(O[C@H]2CC[C@@H](O)CC2)n1 |  | 126 | 1000 | 4.5 |  |  |  |  | 
CN(C)C(=O)CNc1ccc(-c2cc(-c3cccc(C(N)=O)n3)no2)c(O[C@H]2CC[C@@H](O)CC2)n1 | 2 (≈ 0.961 µg/mL) | 126 | 100 | 3 | 80 | 326 nM | 0.27 | 1210 | 
CN1Cc2cc(-c3cc(-c4cccc(C(N)=O)c4)no3)c(O[C@H]3CC[C@@H](O)CC3)cc2C1=O | 1.8 (≈ 0.805 µg/mL) | 79.4 | 79.4 | 3.3 | 93 | 1550 nM | 0.158 | 9810 | concentration at 76 h [17]: ≥ 1000 nM; inhibition [18]: > 90%; Drug uptake(free) [19]: 100 nM; inhibition [20]: 15%; inhibition [21]: 100%; inhibition [22]: 97%; Activity (Rattus norvegicus [23]): Dose-dependent-effect; Activity (Rattus norvegicus [24]): Not active; Less Profound Effect Observed; inhibition [25]: 88%; inhibition [26]: 86%; Drug uptake [27]: Dose-dependent-effect; inhibition [28]: Dose-dependent-effect; concentration at 168 h [29]: 631000 nM; concentration at 168 h [30]: 42000 nM; Activity (Rattus norvegicus [31]): Dose-dependent-effect; inhibition [32]: 88%; inhibition [33]: 77%
CNc1ccc(-c2cc(-c3cccc(C(N)=O)n3)no2)c(O[C@H]2CC[C@@H](O)CC2)n1 | 1 (≈ 0.409 µg/mL) | 63.1 | 126 | > 4.7 | 168 | 35 nM | 0.019 | 1840 | 
NC(=O)c1cccc(-c2cc(-c3ccc(NCC(=O)N4CCS(=O)(=O)CC4)nc3O[C@H]3CC[C@@H](O)CC3)on2)n1 | 0.13 (≈ 0.0742 µg/mL) | 251 | 631 | 2.4 |  | 221 nM | 0.452 | 489 | 
CN(C)C(=O)c1ccc(-c2cc(-c3cccc(C(N)=O)c3)no2)c(O[C@H]2CC[C@@H](O)CC2)n1 | 12 (≈ 5.41 µg/mL) | 200 | 251 | 2.8 |  |  |  |  | 
CNC(=O)CNc1ccc(-c2cc(-c3cccc(C(N)=O)n3)no2)c(O[C@H]2CC[C@@H](O)CC2)n1 | 2.2 (≈ 1.03 µg/mL) | 50.1 | 631 | 2.8 |  |  |  |  | 
NC(=O)c1cccc(-c2cc(-c3ccc(N)nc3O[C@H]3CC[C@@H](O)CC3)on2)n1 | 15 (≈ 5.93 µg/mL) | 63.1 | 158 | 3.6 | 21 | 11 nM | 0.088 | 120 | 
